From patent publication US11161856B2 (H. Lundbeck A/S, priority 2017, dated 2021)

Legend:
Format in all cases: biochemical
MAGL = target: T1, MAGL (Homo sapiens, UniProt Q99685); experiment: In vitro competitive activity-based protein profiling (FP-Rh or HT-01 probe, gel-based); design: IC50 MGLL PC3 (Human, μM) / IC50 MGLL PFC (Human, μM): scale not given here; conditions: for % Inh MGLL PC3 (Human, μM) / % Inh MGLL PFC (Human, μM): concentration not given (μM); for % Inh MGLL PFC (Human, μM): prefrontal cortex (PFC) proteome
T1 construct: Proteomes (human prefrontal cortex or cell membrane fractions); from tissue
T1 sequence (Q99685 1-303): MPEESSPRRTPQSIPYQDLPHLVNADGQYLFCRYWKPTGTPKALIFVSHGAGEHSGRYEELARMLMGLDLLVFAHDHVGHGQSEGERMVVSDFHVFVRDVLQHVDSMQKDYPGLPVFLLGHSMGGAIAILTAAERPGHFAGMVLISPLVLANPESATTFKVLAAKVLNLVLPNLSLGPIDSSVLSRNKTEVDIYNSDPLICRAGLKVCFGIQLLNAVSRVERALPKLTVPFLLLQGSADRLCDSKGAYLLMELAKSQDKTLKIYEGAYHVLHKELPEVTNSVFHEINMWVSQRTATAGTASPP
Summary of the method: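 Human prefrontal cortex or cell membrane proteomes (1.0 mg/mL total protein) were preincubated with varying inhibitor concentrations for 30 min at 37° C. FP-Rh or HT-01 probe (50 μM DMSO stock) was then added for 30 min at room temperature, and samples were quenched in SDS loading buffer and resolved by SDS-PAGE.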

MGLL = target: T2, MGLL (Mus musculus, UniProt O35678); experiment: In vitro competitive activity-based protein profiling, mouse brain proteome (MGLL); conditions: concentration not given (μM)
T2 construct: Brain; from tissue; host or cells: mouse brain proteome
T2 sequence (O35678 1-303): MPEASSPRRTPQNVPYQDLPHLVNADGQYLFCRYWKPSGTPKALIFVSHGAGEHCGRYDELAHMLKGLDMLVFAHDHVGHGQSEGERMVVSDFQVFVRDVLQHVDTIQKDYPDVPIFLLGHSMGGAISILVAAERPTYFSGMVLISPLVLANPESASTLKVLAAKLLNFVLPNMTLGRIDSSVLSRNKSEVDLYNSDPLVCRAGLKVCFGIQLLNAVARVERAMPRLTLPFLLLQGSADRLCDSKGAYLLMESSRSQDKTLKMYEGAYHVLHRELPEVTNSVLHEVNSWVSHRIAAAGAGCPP

ABHD6 = target: T3, ABHD6 (Mus musculus, UniProt Q8R2Y0); experiment: In vitro competitive activity-based protein profiling, mouse brain proteome (ABHD6); conditions: mouse brain proteome; concentration not given (μM)
T3 construct: Brain; from tissue; host or cells: mouse brain proteome
T3 sequence (Q8R2Y0 1-336): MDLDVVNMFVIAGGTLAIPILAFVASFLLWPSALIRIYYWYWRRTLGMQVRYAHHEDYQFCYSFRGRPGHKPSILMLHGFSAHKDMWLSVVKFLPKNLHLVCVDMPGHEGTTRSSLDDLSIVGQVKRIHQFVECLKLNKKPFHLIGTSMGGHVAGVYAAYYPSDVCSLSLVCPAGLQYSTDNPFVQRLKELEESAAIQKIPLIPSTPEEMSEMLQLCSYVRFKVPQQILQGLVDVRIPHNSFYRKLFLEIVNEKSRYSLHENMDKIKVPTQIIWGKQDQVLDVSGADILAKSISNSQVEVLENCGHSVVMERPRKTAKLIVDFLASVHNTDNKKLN
Description: [The source words this procedure for another target and reports this target under the same test.] In Vitro Competitive Activity-Based Protein Profiling.
Proteomes (human prefrontal cortex or cell membrane fractions) (50 μL, 1.0 mg/mL total protein concentration) were preincubated with varying concentrations of inhibitors at 37° C. After 30 min, FP-Rh or HT-01 (1.0 μL, 50 μM in DMSO) was added and the mixture was incubated for another 30 min at room temperature. Reactions were quenched with SDS loading buffer (15 μL-4×) and run on SDS-PAGE.

Structure (SMILES) | % Inh MGLL PC3 (Human, μM) (MAGL; PC3 cell proteome) | % Inh MGLL Brain (Mouse, μM) (MGLL) | % Inh ABHD6 Brain (Mouse, μM) (ABHD6) | % Inh MGLL PFC (Human, μM) (MAGL) | IC50 MGLL PC3 (Human, μM) (MAGL; PC3 cell proteome)
CN(Cc1ccc(Cl)cc1C1(C(=O)O)CCCC1)C1(C)CCN(C(=O)OC(C(F)(F)F)C(F)(F)F)CC1 [Example 142, 1-(5-Chloro-2-{[(1-{[(1,1,1,3,3,3-hexafluoropropan-2-yl)oxy]carbonyl}-4-methylpiperidin-4-yl)(methyl)amino]methyl}phenyl)cyclopentane-1-carboxylic acid] | ### (### is ≥75%) | ### (### is ≥75%) | # (# is ≤25%) | – | –
O=C(O)C1CCN(c2cc(CN3CC4(CCN(C(=O)OC(C(F)(F)F)C(F)(F)F)CC4)C3)cc(C(F)(F)F)c2)CC1 [Example 99, 1-(3-((7-(((1,1,1,3,3,3-Hexafluoropropan-2-yl)oxy)carbonyl)-2,7-diazaspiro[3.5]nonan-2-yl)methyl)-5-(trifluoromethyl)phenyl)piperi-dine-4-carboxylic acid] | – | ### (### is ≥75%) | ### (### is ≥75%) | ### (### is ≥75%) | –
O=C(O)C1CCN(Cc2cc(CN3CCC4(CC3)CCN(C(=O)OC(C(F)(F)F)C(F)(F)F)C4)cc(C(F)(F)F)c2)CC1 [Example 223, l-(3-((2-(((1,1,1,3,3,3-Hexafluoropropan-2-yl)oxy)carbonyl)-2,8-diazaspiro[4.5]decan-8-yl)methyl)-5-(trifluoromethyl)benzyl) piperidine-4-carboxylic acid] | – | # (# is ≤25%) | # (# is ≤25%) | ## (## is between 25 and 75%) | –
CN(Cc1cccc(F)c1C1(C(=O)O)CCCC1)C1(C)CCN(C(=O)OC(C(F)(F)F)C(F)(F)F)CC1 [Example 144, l-(2-Fluoro-6-{[(1-{[(1.1,1,3,3,3-hexafluoropropan-2-yl)oxy]carbonyl}-4-methylpiperidin-4-yl)(methyl)ainino]methyl}phenyl)cyclopentane-1-carboxylic acid] | ### (### is ≥75%) | ### (### is ≥75%) | # (# is ≤25%) | – | –
O=C(O)CN1CC2(CCN(c3cc(C(F)(F)F)ccc3CN3CCCC34CCN(C(=O)OC(C(F)(F)F)C(F)(F)F)CC4)CC2)C1 [Example 157, 2-(7-(2-((8-(((1,1,1,3,3,3-Hexafluoropropan-2-yl)oxy)carbonyl)-1,8-diazaspiro[4.5]decan-1-yl)methyl)-5-(trifluoromethyl)phenyl)-2,7-diazaspiro[3.5]nonan-2-yl)acetic acid] | – | ### (### is ≥75%) | # (# is ≤25%) | ### (### is ≥75%) | –
O=C(O)CN1CCC2(CCN(c3cc(C(F)(F)F)ccc3CN3CCCC34CCN(C(=O)OC(C(F)(F)F)C(F)(F)F)CC4)CC2)C1 [Example 153, 2-(8-(2-((8-(((1,1,1,3,3,3-Hexafluoropropan-2-yl)oxy)carbonyl)-1,8-diazaspiro[4.5]decan-1-yl)methyl)-5-(trifluoromethyl)phenyl)-2,8-diazaspiro[4.5]decan-2-yl)acetic acid] | – | ### (### is ≥75%) | # (# is ≤25%) | ### (### is ≥75%) | –
O=C(OC(C(F)(F)F)C(F)(F)F)N1CC2(CCN(Cc3ccc(C(F)(F)F)cc3N3CCCC3)CC2)C1 [Example 150, 1,1,1,3,3,3-Hexafluoropropan-2-yl 7-(2-(pyrrolidin-1-yl)-4-(trifluoromethyl)benzyl)-2,7-diazaspiro[3.5]nonane-2-carboxylate] | – | # (# is ≤25%) | ### (### is ≥75%) | ## (## is between 25 and 75%) | –
O=C(OC(C(F)(F)F)C(F)(F)F)N1CCC2(CCCN2Cc2cc(C(F)(F)F)cc(C3(C(=O)O)CCCC3)c2)CC1 [Example 8, 1-(3-((8-(((1,1,1,3,3,3-Hexafluoropropan-2-yl)oxy)carbonyl)-1,8-diazaspiro[4.5]decan-1-yl)methyl)-5-(trifluoromethyl)phenyl)cyclopentane-1-carboxylic acid] | – | ### (### is ≥75%) | ## (## is between 25 and 75%) | ### (### is ≥75%) | –
O=C(O)C1COCCN1c1cc(CN2CC3(CCN(C(=O)OC(C(F)(F)F)C(F)(F)F)CC3)C2)cc(C(F)(F)F)c1 (stereo not shown) [Example 103] | – | ### (### is ≥75%) | ## (## is between 25 and 75%) | ### (### is ≥75%) | –

Now from value to molecule:

% Inh MGLL PC3 (Human, μM) (MAGL; PC3 cell proteome) | % Inh MGLL Brain (Mouse, μM) (MGLL) | % Inh ABHD6 Brain (Mouse, μM) (ABHD6) | % Inh MGLL PFC (Human, μM) (MAGL) | IC50 MGLL PC3 (Human, μM) (MAGL; PC3 cell proteome) | Structure (SMILES)
– | ### (### is ≥75%) | ### (### is ≥75%) | ### (### is ≥75%) | – | O=C(OC(C(F)(F)F)C(F)(F)F)N1CCC2(CCCN2C(=O)c2ccc(C(F)(F)F)cc2)CC1 [Example 83, 1,1,1,3,3,3-Hexafluoropropan-2-yl 1-(4-(trifluoromethyl)benzoyl)-1,8-diazaspiro[4.5]decane-8-carboxylate]
– | ### (### is ≥75%) | # (# is ≤25%) | ### (### is ≥75%) | – | O=C(O)CN1CC2CC1CN2c1cc(CN2CCCC23CCN(C(=O)OC(C(F)(F)F)C(F)(F)F)CC3)cc(C(F)(F)F)c1 (stereo not shown) [Example 128, 2-(5-{3-[(8-{[(1,1,1,3,3,3-Hexafluoropropan-2-yl)oxy]carbonyl}-1,8-diazaspiro[4.5]decan-1-yl)methyl]-5-(trifluoromethyl)phenyl}-2,5-diazabicyclo[2.2.1]heptan-2-yl)acetic acid]
– | ### (### is ≥75%) | ## (## is between 25 and 75%) | ### (### is ≥75%) | – | O=C(O)C1CCN(c2cc(CN3CCC4(CC3)CCN(C(=O)OC(C(F)(F)F)C(F)(F)F)C4)cc(S(F)(F)(F)(F)F)c2)CC1 [Example 226, 1-(3-((2-(((1,1,1,3,3,3-Hexafluoropropan-2-yl)oxy)carbonyl)-2,8-diazaspiro[4.5]decan-8-yl)methyl)-5-(pentafluoro-16-sulfancyl)phenyl)piperidine-4-carboxylic acid]
– | ### (### is ≥75%) | ### (### is ≥75%) | ### (### is ≥75%) | * * * | CC1(C(=O)O)CN(c2cc(CN3CC4(CCN(C(=O)OC(C(F)(F)F)C(F)(F)F)CC4)C3)cc(C(F)(F)F)c2)CCO1 (stereo not shown) [Example 22, 4-(3-((7-(((1,1,1,3,3,3-Hexafluoropropan-2-yl)oxy)carbonyl)-2,7-diazaspiro[3.5]nonan-2-yl)methyl)-5-(trifluoromethyl)phenyl)-2-methylmorpholine-2-carboxylic acid]
– | ### (### is ≥75%) | ### (### is ≥75%) | ### (### is ≥75%) | – | O=C(O)C1CCN(c2cc(C(F)(F)F)ccc2CN2CC3(CCN(C(=O)OC(C(F)(F)F)C(F)(F)F)CC3)C2)CC1 [Example 102, l-(2-((7-(((U,l,3,3,3-Hexafluoropropan-2-yl)oxy)carbonyl)-2,7-diazaspiro[3.5]nonan-2-yl)methyl)-5-(trifluoromethyl)phenyl)piperi-dine-4-carboxylic acid]
